Key:
[1] = test system: IL-6 production in J774 macrophages; test: IL-6 production by stimulated J774 macrophages, ELISA of culture supernatants; format: cell-based, mouse; details: for release of IL-6: absence of exogenously-supplied immunostimulatory factors; for effect on IL-6 production: LPS-treated macrophages; for production of IL-6: regardless of stimulus: viral ribopolymers, LPS or lipoteichoic acid
Experimental: (§1) J774.1 macrophages were cultured in RPMI 1640 medium containing 15% fetal calf serum in a humidified 37° C. incubator supplied with 5% CO2. Cells were plated at 50% confluency in 96 well format and allowed to attach overnight. For immunostimulation experiments, cells were incubated overnight in 100 μl of the above medium containing sub-maximal stimulatory levels of inducers: 0.1 μg/mL Salmonella lipopolysaccharide (Sigma), 1 μg/mL lipoteichoic acid (Sigma) or sterile, cell-free bacterially conditioned medium at a final concentration of 10^7 cell equivalents/mL. Following incubation, the medium was removed, centrifuged, and stored at −20° C. for subsequent assay for the presence of released cytokines. Preparation of bacterially conditioned medium Pseudomonas aeruginosa strain PAO1 and Lux^+ or Lux^− strains of Salmonella typhimurium 14028 were cultured in Luria Broth overnight. The optical density of the cultures was measured at 600 nm and cell densities calculated through use of a MacFarland's standard. Bacterial cultures were centrifuged and supernatants were filtered through a 0.2 micron sterile filter to remove all bacteria.
(§2) Centrifuged macrophage culture supernatants were assayed for the presence of secreted IL-1 and IL-6 through use of an ELISA kit according to the manufacturer's directions (R&D Systems, Minneapolis, Minn.). Briefly, 10 μl of culture supernatants were bound to test wells precoated with either anti-IL-1 or anti-IL-6 immunoglobulin. Bound cytokine was detected through use of a secondary cytokine-specific antibody tagged with horseradish peroxidase. Assay samples were developed through use of stabilized tetramethylbenzidine and hydrogen peroxide. Cytokine level, directly proportional to the colorimetric signal, was quantitated by measuring sample absorbance at 450 nm.

[2] = test system: IL-1 production in J774 macrophages; test: IL-1 production by stimulated J774 macrophages, ELISA of culture supernatants; format: cell-based, mouse; details: for release of IL-1: absence of exogenously-supplied immunostimulatory factors; for effect on IL-1 production: LPS-treated macrophages
Experimental: as §1, §2

MM32 = MM32 light production assay (quorum sensing activity); format: cell-based, Vibrio harveyi
Source text: Such agonists and analogs can be readily recognized by their action on the quorum-sensing system of bacteria such as mutant strains of Vibrio harveyi that respond to AI-2 but cannot produce it themselves. For example, AI-2 analogs and agonists can be identified by known techniques, including but not limited to, large-scale screening of compounds through use of the V. harveyi bioassay described in U.S. Pat. No. 6,780,890 and other techniques described therein. Reduction in signaling activity in the presence of a test compound indicates the ability of that compound to, for example, block bacterial pathogenesis by affecting the expression of one or more virulence factors.

recombinant COX-2 = biological target: T1, recombinant COX-2 (Homo sapiens, UniProt P35354); test: Inhibition of recombinant COX-2 prostaglandin synthesis, ELISA for PGE2; format: biochemical
T1 sequence (P35354 18-604): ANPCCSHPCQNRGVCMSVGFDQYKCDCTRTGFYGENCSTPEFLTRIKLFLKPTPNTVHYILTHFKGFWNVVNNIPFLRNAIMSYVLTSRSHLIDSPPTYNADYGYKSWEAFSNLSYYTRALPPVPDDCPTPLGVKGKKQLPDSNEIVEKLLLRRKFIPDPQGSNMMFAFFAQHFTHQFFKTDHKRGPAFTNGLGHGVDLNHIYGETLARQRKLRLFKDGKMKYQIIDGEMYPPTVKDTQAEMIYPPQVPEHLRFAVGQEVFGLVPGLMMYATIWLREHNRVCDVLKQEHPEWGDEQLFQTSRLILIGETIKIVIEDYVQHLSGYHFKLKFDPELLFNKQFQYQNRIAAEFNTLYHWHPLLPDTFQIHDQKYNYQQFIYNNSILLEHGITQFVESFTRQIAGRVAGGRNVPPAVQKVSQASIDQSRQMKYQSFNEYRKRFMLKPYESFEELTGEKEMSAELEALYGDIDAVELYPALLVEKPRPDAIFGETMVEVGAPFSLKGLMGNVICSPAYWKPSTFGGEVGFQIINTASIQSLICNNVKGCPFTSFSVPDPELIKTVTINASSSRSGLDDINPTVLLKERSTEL
Experimental: “Max Inhibition” and “Aspirin/1000 uM” are positive inhibition controls. “Analog/500 uM,” represents the inhibition of prostaglandin synthesis by 500 μM MHF; “AI-2/40 uM” and “AI-2/80 uM” represents the inhibition of prostaglandin synthesis by 40 and 80 μM, respectively of AI-2. “Ribose/500 um” the inhibition of prostaglandin synthesis by 500 μM ribose. Prostaglandin synthesis was indirectly quantitated using an ELISA for PGE2 production.
Extracellular bacterial signals trigger expression of cyclooxygenase-2 (cox-2), which amplifies the cellular IL-6 response by catalyzing production of prostaglandin PGE2.
Aspirin, a non-specific inhibitor of COX-2 served as an inhibition control; prostaglandin synthesis was indirectly quantitated in an ELISA assay.

[3] = test system: nitric oxide production (iNOS activity) in J774 macrophages; test: Nitric oxide (nitrite) production by LPS-stimulated J774 macrophages; format: cell-based, mouse
Experimental: FIG. 10 is a bar graph showing that AI-2 treatment suppresses nitric oxide production by LPS-stimulated J774 macrophages. “LPS+34,” “LPS+AI-2(5 ul)” and LPS+AI-2(2 ul) represents inhibition by concurrent treatment with LPS and MHF or the indicated amounts of AI-2. “LPS+ribose” is a control to show the amount of nitric oxide production in the absence of an inhibitor.

[4] = LPS 0.1 μg/mL, concurrent AI-2 40 μM
[5] = LPS-stimulated macrophages, increasing amounts of enzymatically-prepared AI-2

N[C@@H](CCS)C(=O)O [homocysteine, reference compound]
release of IL-6 [1]: neither AI-2 nor its biosynthesis co-products, adenine and homocysteine, cause macrophages to release IL-1 or IL-6
release of IL-1 [2]: neither AI-2 nor its biosynthesis co-products, adenine and homocysteine, cause macrophages to release IL-1 or IL-6

O=C[C@H](O)[C@H](O)[C@H](O)CO [ribose, reference compound]
quorum-sensing activity (MM32; 50 μM ribose): lacks quorum-sensing activity
effect on IL-6 production [1]: affect neither IL-1 nor IL-6 production
production of IL-6 [1]: effects no attenuation
effect on IL-1 production [2]: affect neither IL-1 nor IL-6 production
inhibition of PGE2 production (recombinant COX-2; 500 μM ribose): inability of ribose (even at high concentrations, 500 μM) to inhibit PGE2 production

O=C1O[C@H]([C@@H](O)CO)C(O)=C1O [ascorbic acid, reference compound]
effect on IL-6 production [1]: affect neither IL-1 nor IL-6 production
effect on IL-1 production [2]: affect neither IL-1 nor IL-6 production

Nc1ncnc2nc[nH]c12 [adenine, reference compound]
release of IL-6 [1]: neither AI-2 nor its biosynthesis co-products, adenine and homocysteine, cause macrophages to release IL-1 or IL-6
release of IL-1 [2]: neither AI-2 nor its biosynthesis co-products, adenine and homocysteine, cause macrophages to release IL-1 or IL-6

CC(=O)C(=O)[C@@H](O)CO [AI-2]
reduction of overall concentration of IL-6 [1, 4]: approximately 50%
IL-6 production, dose dependence [1, 5]: increasing suppression
release of IL-6 [1]: neither AI-2 nor its biosynthesis co-products, adenine and homocysteine, cause macrophages to release IL-1 or IL-6
reduction in IL-6 levels ([1]; macrophages stimulated with LPS (0.1 μg/ml), 5 μl of the AI-2 reaction product): ~50%
IC50 ([1]; read-out: IC50, inhibition of IL-6 production in macrophages): 40 µM
production of IL-6 [1]: decrease production of IL-6
reduction of overall concentration of IL-1 [2, 4]: approximately 50%
IL-1 production, dose dependence [2, 5]: increasing suppression
release of IL-1 [2]: neither AI-2 nor its biosynthesis co-products, adenine and homocysteine, cause macrophages to release IL-1 or IL-6
IC50 (recombinant COX-2; read-out: IC50, prostaglandin level produced by recombinant COX-2): 40 µM
nitrite (breakdown product of nitric oxide) level [3]: near baseline levels

CC1=C(O)C(=O)CO1 [MHF, 5-methyl-4-hydroxy-3(2H)furanone]
quorum sensing activity (MM32): displays quorum sensing activity
quorum-sensing activity (MM32; 500 μg/ml MHF): comparable to 2.5 μL enzymatically-synthesized AI-2
IL-6 production ([1]; LPS-stimulated J774 macrophages): suppression of IL-6 production
IL-6 production ([1]; lipoteichoic acid-stimulated J774 macrophages): suppression of IL-6 production
production of IL-6 [1]: decrease production of IL-6
reduction in IL-6 production ([1]; stimulated J774 macrophages, 500 μM MHF): 50%
concentration at which near maximal attenuation of IL-6 release occurs ([1]; stimulated J774 macrophages, little change at higher concentrations): 877 µM
concentration at which detectable attenuation of IL-6 release occurs ([1]; stimulated J774 macrophages, titration): 105 µM
IL-6 production ([1]; viral ribopolymer (polyCI)-stimulated J774 macrophages): suppression of IL-6 production
inhibition of Cox-2 prostaglandin synthetase activity (recombinant COX-2; 500 μM MHF): inhibition of Cox-2 prostaglandin synthetase activity
nitrite (breakdown product of nitric oxide) level [3]: near baseline levels

Source: patent publication US20050187190A1, “Autoinducer-2 compounds as immunomodulatory agents” (priority 2004, published 2005)
